Test results: patent publication US10986838B2, “Herbicides” (SYNGENTA PARTICIPATIONS AG, priority 2016, dated 2021)

Assays:
Assay type in all cases: in vivo
Lolium perenne (LOLPE) [1] = assay: Pre-emergence herbicidal activity (B1); conditions: 1000 g/ha, evaluated after 13 days, 5=total damage to plant, 0=no damage to plant
Description: (§1) B1 Pre-Emergence Herbicidal Activity Seeds of a variety of test species were sown in standard soil in pots: Triticum aestivium (TRZAW), Avena fatua (AVEFA), Alopecurus myosuroides (ALOMY), Echinochloa crus-galli (ECHCG), Lolium perenne (LOLPE), Zea Mays (ZEAMX), Abutilon theophrasti (ABUTH), Amaranthus retroflexus (AMARE) and Setaria faberi (SETFA). After cultivation for one day (pre-emergence) under controlled conditions in a glasshouse (at 24/16° C., day/night; 14 hours light; 65% humidity), the plants were sprayed with an aqueous spray solution derived from the formulation of the technical active ingredient in acetone/water (50:50) solution containing 0.5% Tween 20 (polyoxyethelyene sorbitan monolaurate, CAS RN 9005-64-5). The test plants were then grown in a glasshouse under controlled conditions (at 24/16° C., day/night; 14 hours light; 65% humidity) and watered twice daily. After 13 days, the test was evaluated (5=total damage to plant; 0=no damage to plant). Tables B1a and B1b Control of Weed Species by Compound of Formula (I) after Pre-Emergence Application

[2] = tested on: Triticum aestivium (TRZAW); assay: Pre-emergence herbicidal activity (B1); conditions: Test 1a, 1000 g/ha, evaluated after 13 days, 5=total damage to plant, 0=no damage to plant
Description: as §1

[3] = tested on: Alopecurus myosuroides (ALOMY); assay: Pre-emergence herbicidal activity (B1); conditions: Test 1a, 1000 g/ha, evaluated after 13 days, 5=total damage to plant, 0=no damage to plant
Description: as §1

[4] = tested on: Echinochloa crus-galli (ECHCG); assay: Pre-emergence herbicidal activity (B1); conditions: 1000 g/ha, evaluated after 13 days, 5=total damage to plant, 0=no damage to plant
Description: as §1

Avena fatua (AVEFA) [5] = assay: Pre-emergence herbicidal activity (B1); conditions: Test 1a, 1000 g/ha, evaluated after 13 days, 5=total damage to plant, 0=no damage to plant
Description: as §1

Setaria faberi (SETFA) [6] = assay: Pre-emergence herbicidal activity (B1); conditions: 1000 g/ha, evaluated after 13 days, 5=total damage to plant, 0=no damage to plant
Description: as §1

Lolium perenne (LOLPE) [7] = assay: Post-emergence herbicidal activity (B2); conditions: 1000 g/ha, evaluated after 13 days, 5=total damage to plant, 0=no damage to plant
Description: (§2) B2 Post-Emergence Herbicidal Activity Seeds of a variety of test species were sown in standard soil in pots: Triticum aestivium (TRZAW), Avena fatua (AVEFA), Alopecurus myosuroides (ALOMY), Echinochloa crus-galli (ECHCG), Lolium perenne (LOLPE), Zea Mays (ZEAMX), Abutilon theophrasti (ABUTH), Amaranthus retroflexus (AMARE) and Setaria faberi (SETFA). After 8 days cultivation (post-emergence) under controlled conditions in a glasshouse (at 24/16° C., day/night; 14 hours light; 65% humidity), the plants were sprayed with an aqueous spray solution derived from the formulation of the technical active ingredient in acetone/water (50:50) solution containing 0.5% Tween 20 (polyoxyethelyene sorbitan monolaurate, CAS RN 9005-64-5). The test plants were then grown in a glasshouse under controlled conditions (at 24/16° C., day/night; 14 hours light; 65% humidity) and watered twice daily. After 13 days, the test was evaluated (5=total damage to plant; 0=no damage to plant). Tables B2a and B2b Control of Weed Species by Compound of Formula (I) after Post-Emergence Application

[8] = tested on: Triticum aestivium (TRZAW); assay: Post-emergence herbicidal activity (B2); conditions: Test B2a, 1000 g/ha, evaluated after 13 days, 5=total damage to plant, 0=no damage to plant
Description: as §2

[9] = tested on: Alopecurus myosuroides (ALOMY); assay: Post-emergence herbicidal activity (B2); conditions: Test B2a, 1000 g/ha, evaluated after 13 days, 5=total damage to plant, 0=no damage to plant
Description: as §2

[10] = tested on: Echinochloa crus-galli (ECHCG); assay: Post-emergence herbicidal activity (B2); conditions: 1000 g/ha, evaluated after 13 days, 5=total damage to plant, 0=no damage to plant
Description: as §2

Avena fatua (AVEFA) [11] = assay: Post-emergence herbicidal activity (B2); conditions: Test B2a, 1000 g/ha, evaluated after 13 days, 5=total damage to plant, 0=no damage to plant
Description: as §2

Setaria faberi (SETFA) [12] = assay: Post-emergence herbicidal activity (B2); conditions: 1000 g/ha, evaluated after 13 days, 5=total damage to plant, 0=no damage to plant
Description: as §2

[13] = tested on: Abutilon theophrasti (ABUTH); assay: Pre-emergence herbicidal activity (B1); conditions: Test 1b, 1000 g/ha, evaluated after 13 days, 5=total damage to plant, 0=no damage to plant
Description: as §1

[14] = tested on: Amaranthus retroflexus (AMARE); assay: Pre-emergence herbicidal activity (B1); conditions: Test 1b, 1000 g/ha, evaluated after 13 days, 5=total damage to plant, 0=no damage to plant
Description: as §1

Zea Mays (ZEAMX) [15] = assay: Pre-emergence herbicidal activity (B1); conditions: Test 1b, 1000 g/ha, evaluated after 13 days, 5=total damage to plant, 0=no damage to plant
Description: as §1

[16] = tested on: Abutilon theophrasti (ABUTH); assay: Post-emergence herbicidal activity (B2); conditions: Test B2b, 1000 g/ha, evaluated after 13 days, 5=total damage to plant, 0=no damage to plant
Description: as §2

[17] = tested on: Amaranthus retroflexus (AMARE); assay: Post-emergence herbicidal activity (B2); conditions: Test B2b, 1000 g/ha, evaluated after 13 days, 5=total damage to plant, 0=no damage to plant
Description: as §2

Zea Mays (ZEAMX) [18] = assay: Post-emergence herbicidal activity (B2); conditions: Test B2b, 1000 g/ha, evaluated after 13 days, 5=total damage to plant, 0=no damage to plant
Description: as §2

SMILES	LOLPE damage score (Lolium perenne (LOLPE) [1]; Test 1a)	TRAZW damage score [2]	ALOMY damage score [3]	ECHCG damage score ([4]; Test 1a)	AVEFA damage score (Avena fatua (AVEFA) [5])	SETFA damage score (Setaria faberi (SETFA) [6]; Test 1a)	LOLPE damage score (Lolium perenne (LOLPE) [7]; Test B2a)	TRAZW damage score [8]	ALOMY damage score [9]	ECHCG damage score ([10]; Test B2a)	AVEFA damage score (Avena fatua (AVEFA) [11])	SETFA damage score (Setaria faberi (SETFA) [12]; Test B2a)	LOLPE damage score (Lolium perenne (LOLPE) [1]; Test 1b)	ABUTH damage score [13]	ECHCG damage score ([4]; Test 1b)	AMARE damage score [14]	ZEAMX damage score (Zea Mays (ZEAMX) [15])	SETFA damage score (Setaria faberi (SETFA) [6]; Test 1b)	LOLPE damage score (Lolium perenne (LOLPE) [7]; Test B2b)	ABUTH damage score [16]	other results
CCCCCNc1ccc(-c2cncc(F)c2)nc1C(F)(F)F [Compound A54]	1	0	0	3	1	5	2	0	0	3	3	5									
Fc1cncc(-c2ccc(NCc3cscn3)c(C(F)(F)F)n2)c1 [Compound A57]	1	0	1	5	3	5	4	2	1	5	4	5									
Fc1cncc(-c2ccc(NCCc3ccccc3)c(C(F)(F)F)n2)c1 [Compound A49]	1	0	0	3	1	5	3	0	0	3	3	5									
CCCCCCNc1ccc(-c2cncc(F)c2)nc1C(F)(F)F [Compound A42]	1	0	0	4	2	5	2	1	1	5	3	5									
Fc1cncc(-c2ccc(NCc3cnco3)c(C(F)(F)F)n2)c1 [Compound A60]	1	0	0	5	3	5	4	2	1	5	3	5									
Fc1cncc(-c2ccc(N3CCOCC3)c(C(F)(F)F)n2)c1 [Compound A39, 4-[6-(5-fluoro-3-pyridyl)-2-(trifluoromethyl)-3-pyridyl]morpholine]	0	0	0	3	0	3	2	0	0	4	2	4									
Fc1cncc(-c2ccc(NC3CC3)c(C(F)(F)F)n2)c1 [Compound A46]	0	0	0	2	1	4	2	1	1	4	3	4									
COc1nc(-c2cncc(F)c2)ccc1N [Compound A43]	1	0	0	0	0	1	1	0	0	1	1	2									
CNc1ccc(-c2cncnc2)nc1C(F)(F)F [Compound A34]													3	0	4	1	4	4	3	1	ECHCG damage score ([10]; Test B2b): 5; AMARE damage score [17]: 2; ZEAMX damage score (Zea Mays (ZEAMX) [18]): 5; SETFA damage score (Setaria faberi (SETFA) [12]; Test B2b): 5
Cc1nc(-c2cccnc2)ccc1N [Compound A36]													0	1	0	1	0	1	1	0	ECHCG damage score ([10]; Test B2b): 1; AMARE damage score [17]: 1; ZEAMX damage score (Zea Mays (ZEAMX) [18]): 2; SETFA damage score (Setaria faberi (SETFA) [12]; Test B2b): 2
CNc1ccc(-c2cncc(F)c2)nc1C(F)(F)F [Compound A5]													1	1	2	2	4	5	4	1	ECHCG damage score ([10]; Test B2b): 4; AMARE damage score [17]: 1; ZEAMX damage score (Zea Mays (ZEAMX) [18]): 5; SETFA damage score (Setaria faberi (SETFA) [12]; Test B2b): 5
COC(=O)C(C)Nc1ccc(-c2cncc(F)c2)nc1C(F)(F)F (centres unmarked) [Compound A19]													2	0	3	1	5	4	3	1	ECHCG damage score ([10]; Test B2b): 4; AMARE damage score [17]: 2; ZEAMX damage score (Zea Mays (ZEAMX) [18]): 5; SETFA damage score (Setaria faberi (SETFA) [12]; Test B2b): 5
CNc1ccc(-c2cncc(OC)c2)nc1C(F)(F)F [Compound A10]													0	1	0	1	1	2	1	0	ECHCG damage score ([10]; Test B2b): 1; AMARE damage score [17]: 1; ZEAMX damage score (Zea Mays (ZEAMX) [18]): 2; SETFA damage score (Setaria faberi (SETFA) [12]; Test B2b): 3
Cc1nc(-c2cncc(F)c2)ccc1N [Compound A8]													1	0	2	0	3	5	3	0	ECHCG damage score ([10]; Test B2b): 4; AMARE damage score [17]: 0; ZEAMX damage score (Zea Mays (ZEAMX) [18]): 5; SETFA damage score (Setaria faberi (SETFA) [12]; Test B2b): 5
Fc1cncc(-c2ccc(NC3CCCCC3)c(C(F)(F)F)n2)c1 [Compound A45]	0		0	3	1	4	1	0	0	2	2	4									
Cc1nc(-c2cncc(C(F)(F)F)c2)ccc1N [Compound A12]													0	0	0	0	0	0	0	0	ECHCG damage score ([10]; Test B2b): 1; AMARE damage score [17]: 0; ZEAMX damage score (Zea Mays (ZEAMX) [18]): 1; SETFA damage score (Setaria faberi (SETFA) [12]; Test B2b): 1
